In PMC9115709, “TIMP‐1‐expressing breast tumor spheroids for the evaluation of drug penetration and efficacy” (Bioengineering & Translational Medicine, 2021):
Read-outs that look alike come from different tables or passages of the source.

Key:
[1] = tested on: MDA-MB-231 cells; assay: IC50 in MDA-MB-231 monolayer cells; assay type: cell-based, human
[2] = tested on: MDA-MB-231 monocellular spheroids; assay: Drug efficacy in MDA-MB-231 monocellular spheroids; assay type: cell-based, human; settings: drug at IC50 of MDA-MB-231 monolayer cells, 2 days
Experimental: (§1) To form 3D multicellular tumor spheroids, cells was trypsinized and suspended in the growth media. Stromal cells and breast cancer cells were plated with a density of 5 × 10^3 cells /25 μL into 96‐well plate precoated with poly‐HEMA, respectively, resulting in 1 × 10^4 cells exist per each well. After seeding, the plate was centrifuged for 2 min at 1000 rpm to collect the cells in the center of the well. Fifty microliters of 10% Matrigel® Basement Membrane Matrix (Corning, NY, USA) solution diluted in media was gently added into the plate on ice to prevent matrigel from gelation. Monocellular spheroids were generated by a single culture of stromal cells or breast cancer cells. Cells were seeded with a density of 1 × 10^4 cells per well with 50 μL of 10% matrigel on a poly‐HEMA‐coated plate. Then, the plate with cells and matrigel was centrifuged at 1000 rpm for 2 min, and incubated for 48 h at 37°C with 5% CO2.

[3] = tested on: hASC monocellular spheroids; assay: Drug efficacy in hASC monocellular spheroids; assay type: cell-based, human; settings: drug at IC50 of MDA-MB-231 monolayer cells, 2 days
Experimental: as §1

[4] = tested on: Multicellular spheroids with hASC and MDA-MB-231; assay: Permeability value (PV) in the 3D tumor model; settings: PV = EffA:M - 1/2(EffASC + EffMDA), Equation (4)
Experimental: Therefore, we defined the permeability value (PV) of each drug as the difference in efficacy in multicellular and monocellular spheroids, as determined by Equation (4).
After treating the drug with spheroids for 2 days, the efficacy of the drug was evaluated by CellTiter‐Glo® 3D Cell Viability Assay (Promega). […] (4) PV=EffA:M−1/2EffASC+EffMDA.

[5] = tested on: Multicellular spheroids with hASC and MDA-MB-231; assay: Drug efficacy in hASC and MDA-MB-231 multicellular (A:M) spheroids, CellTiter-Glo 3D; assay type: cell-based, human; settings: drug at IC50 of MDA-MB-231 monolayer cells, 2 days
Experimental: as §1

[6] = tested on: hASC-co-cultured spheroids (A:M); assay: Drug penetration (intrinsic fluorescence) in hASC-co-cultured tumor spheroids; assay type: cell-based, human; settings: for Amount of drug inside the spheroids compared to other spheroids: 10 μM, 48 h, fluorescence microscopy, vs hBMSC- or hDF-co-cultured spheroids; for Amount of drug penetrating the spheroids, TIMP-1 silencing vs control siRNA: hASCs transfected with siTIMP-1, 48 h treatment
Experimental: (§2) We next tested whether ECM deposition on the surface of spheroids would affect the penetration of anticancer drugs and their efficacy. Three types of 3D multicellular tumor spheroids were formed and treated with 10 μM doxorubicin, epirubicin, or topotecan, which are chemotherapeutic agents for various tumors, including breast cancer, for an additional 48 h.
as §1
(§3) Spheroids were transferred to an opaque‐walled multiwall plate and analyzed by ATP‐based cell viability assays using Real Time‐Glo™ MT Cell Viability Assay (Promega, Madison, WI, USA) according to the manufacturer's protocol. […] Necrotic cells of spheroids were analyzed in Real Time‐Glo™ Annexin V Necrosis Assay (Promega) following the manufacturer's instructions. Luminescence was measured using a Glomax discovery multi Microplate Reader (Glomax discovery, Promega) with an integration time of 0.25–1.0 s per well.

[7] = tested on: hASC-co-cultured spheroids (A:M); assay: Drug efficacy in multicellular tumor spheroids, Real Time-Glo MT Cell Viability Assay; assay type: cell-based, human; settings: hASCs transfected with siTIMP-1, 48 h treatment
Experimental: as §3

[8] = tested on: 3D multicellular tumor spheroids; assay: Necrosis in tumor spheroids, Real Time-Glo Annexin V Necrosis Assay; assay type: cell-based, human; settings: A:M spheroids with control siRNA or siTIMP-1 hASCs
[9] = tested on: hDF-co-cultured spheroids (F:M); assay: Drug penetration (intrinsic fluorescence) in hDF-co-cultured tumor spheroids; assay type: cell-based, human; settings: 10 μM, 48 h, fluorescence microscopy
Experimental: as §2, §1, §3

[10] = tested on: hBMSC-co-cultured spheroids (B:M); assay: Drug penetration (intrinsic fluorescence) in hBMSC-co-cultured tumor spheroids; assay type: cell-based, human; settings: 10 μM, 48 h, fluorescence microscopy
Experimental: as §2, §1, §3

[11] = Homo sapiens, MDA-MB-231 monolayer cells, read-out: MDA-MB-231 IC50

| SMILES | IC50 [1, 11] [µM] | MDA spheroid Efficacy (EffMDA, %) [2] [%] | hASC spheroid Efficacy (EffASC, %) [3] [%] | Experiment's PV #1 [4] | Experiment's PV #2 [4] | Experiment's PV #3 [4] | A:M spheroid Efficacy (EffA:M, %) [5] [%] | IC50 ([1]; MDA-MB-231 monolayer cells, read-out: MDA-MB-231 IC50) [µM] | Amount of drug inside the spheroids compared to other spheroids [6] | Amount of drug penetrating the spheroids, TIMP-1 silencing vs control siRNA [6] | Drug efficacy, TIMP-1-silenced hASCs vs control [7] | Necrotic cells after drug treatment [8] | Distribution of drug inside the spheroids [9] | Distribution of drug inside the spheroids [10] | IC50 ([1]; Homo sapiens, MDA-MB-231, read-out: MDA-MB-231 IC50) [µM] |
| --- | --- | --- | --- | --- | --- | --- | --- | --- | --- | --- | --- | --- | --- | --- | --- |
| CN(C)c1nc(N(C)C)nc(N(C)C)n1 [Altretamine] | 64.5 | 36.883 | 41.038 | 0.025 | 0.062 | -0.012 | – | – | – | – | – | – | – | – | – |
| CC1(C)[C@@H](O[C@H]2O[C@H](C(=O)O)[C@@H](O)[C@H](O)[C@H]2O[C@@H]2O[C@H](C(=O)O)[C@@H](O)[C@H](O)[C@H]2O)CC[C@]2(C)[C@H]3C(=O)C=C4[C@@H]5C[C@@](C)(C(=O)O)CC[C@]5(C)CC[C@@]4(C)[C@]3(C)CC[C@@H]12 [Ammonium-glycyrrhizinate] | – | 40.204 | 33.753 | -0.114 | -0.075 | -0.095 | 27.510 | 72.1 | – | – | – | – | – | – | – |
| COC(=O)[C@]12CCC(C)(C)C[C@H]1[C@H]1C(=O)C=C3[C@@]4(C)C=C(C#N)C(=O)C(C)(C)[C@@H]4CC[C@@]3(C)[C@]1(C)CC2 [Bardoxolone-methyl] | 2.16 | -35.997 | 38.156 | – | – | – | – | – | – | – | – | – | – | – | – |
| CCCCCOC(=O)Nc1nc(=O)n([C@@H]2O[C@H](C)[C@@H](O)[C@H]2O)cc1F [Capecitabine] | 95 | 99.873 | 99.895 | 0.000 | 0.001 | 0.000 | – | – | – | – | – | – | – | – | – |
| COc1cccc2c1C(=O)c1c(O)c3c(c(O)c1C2=O)C[C@@](O)(C(=O)CO)C[C@@H]3O[C@H]1C[C@H](N)[C@H](O)[C@H](C)O1 [Doxorubicin, doxorubicin] | – | – | – | – | – | – | – | – | significant reduction | significantly increased | significantly increased | Few necrotic cells | distributed throughout | distributed throughout | – |
| COc1cccc2c1C(=O)c1c(O)c3c(c(O)c1C2=O)C[C@@](O)(C(=O)CO)C[C@@H]3O[C@H]1C[C@H](N)[C@@H](O)[C@H](C)O1 [Epirubicin] | 1.57 | 23.696 | 45.548 | -0.096 | -0.017 | -0.056 | – | – | significant reduction | significantly increased | significantly increased | Few necrotic cells | distributed throughout | distributed throughout | – |
| COc1cc([C@@H]2c3cc4c(cc3[C@@H](O[C@@H]3O[C@@H]5CO[C@@H](C)O[C@H]5[C@H](O)[C@H]3O)[C@H]3COC(=O)[C@H]23)OCO4)cc(OC)c1O [Etoposide] | 32.6 | 64.897 | 73.263 | 0.029 | 0.043 | 0.016 | – | – | – | – | – | – | – | – | – |
| CC#C[C@]1(O)CC[C@H]2[C@@H]3CCC4=CC(=O)CCC4=C3[C@@H](c3ccc(N(C)C)cc3)C[C@@]21C [Mifepristone] | 15.4 | 46.672 | 91.524 | – | – | – | – | – | – | – | – | – | – | – | – |
| CO[C@@]12[C@H](COC(N)=O)C3=C(C(=O)C(C)=C(N)C3=O)N1C[C@@H]1N[C@@H]12 [Mitomycin-c] | 17.5 | 53.401 | 64.309 | -0.071 | -0.097 | -0.045 | – | – | – | – | – | – | – | – | – |
| CC(=O)O[C@H]1C(=O)[C@@]2(C)[C@H]([C@H](OC(=O)c3ccccc3)[C@]3(O)C[C@H](OC(=O)[C@H](O)[C@@H](NC(=O)c4ccccc4)c4ccccc4)C(C)=C1C3(C)C)[C@]1(OC(C)=O)CO[C@@H]1C[C@@H]2O [Paclitaxel] | 2.38 | 72.690 | 97.404 | -0.047 | -0.071 | -0.023 | – | – | – | – | – | – | – | – | – |
| C/C(=C\c1csc(C)n1)[C@@H]1C[C@@H]2O[C@]2(C)CCC[C@H](C)[C@H](O)[C@@H](C)C(=O)C(C)(C)[C@@H](O)CC(=O)O1 [Patupilone, Patupilone (epothilone-b)] | 33.4 | 23.781 | 34.560 | -0.039 | -0.067 | -0.010 | – | – | – | – | – | – | – | – | – |
| CC[C@@]1(O)C(=O)OCc2c1cc1n(c2=O)Cc2cc3c([N+](=O)[O-])cccc3nc2-1 [Rubitecan] | 0.82 | 25.373 | 17.266 | – | – | – | – | – | – | – | – | – | – | – | – |
| CNCc1ccc(-c2[nH]c3cc(F)cc4c3c2CCNC4=O)cc1 [Rucaparib] | 72.3 | 92.185 | 99.818 | – | – | – | – | – | – | – | – | – | – | – | – |
| CCc1c2c(nc3ccc(O)cc13)-c1cc3c(c(=O)n1C2)COC(=O)[C@]3(O)CC [SN38, 7-ethyl-10-hydroxycamptothecin] | 1.87 | 58.491 | 60.449 | 0.031 | 0.035 | 0.027 | – | – | – | – | – | – | – | – | – |
| Cn1ncnc1[C@H]1c2n[nH]c(=O)c3cc(F)cc(c23)N[C@@H]1c1ccc(F)cc1 [Talazoparib] | 87.4 | 75.508 | 99.742 | 0.051 | 0.057 | 0.046 | – | – | – | – | – | – | – | – | – |
| COc1ccc(N(C)c2nc(C)nc3ccccc23)cc1 [Verubulin] | – | 5.173 | 24.939 | 0.039 | 0.029 | 0.085 | – | – | – | – | – | – | – | – | 0.01 |
| CC[C@]1(O)C[C@@H]2CN(CCc3c([nH]c4ccccc34)[C@@](C(=O)OC)(c3cc4c(cc3OC)N(C)[C@H]3[C@@](O)(C(=O)OC)[C@H](OC(C)=O)[C@]5(CC)C=CCN6CC[C@]43[C@@H]65)C2)C1 [Vinblastine] | 1.83 | 9.274 | 25.299 | -0.060 | -0.020 | -0.100 | – | – | – | – | – | – | – | – | – |
| CC[C@@]1(O)C(=O)OCc2c1cc1n(c2=O)Cc2cc3c(CN(C)C)c(O)ccc3nc2-1 [topotecan] | – | – | – | – | – | – | – | – | significant reduction | significantly increased | significantly increased | Few necrotic cells | distributed throughout | distributed throughout | – |
